target: T1, GST-tagged truncated human mutant G2019S LRRK2 (Homo sapiens, UniProt Q5S007, G2019S); assay: LRRK2 G2019S Km ATP LanthaScreen assay; type: biochemical; conditions: 134 μM ATP (Km ATP), LRRKtide substrate, mean of several tests
T1 construct: GST-tagged truncated human mutant G2019S LRRK2; purchased Life Technologies Corporation (Carlsbad, CA)
Experimental: Unless otherwise noted, all reactions are magnetically stirred. Unless otherwise noted, when diethyl ether is used in the experiments described below, it is Fisher ACS certified material and is stabilized with BHT. Unless otherwise noted, “concentrated” and/or “solvent removed under reduced pressure” means evaporating the solvent from a solution or mixture using a rotary evaporator or vacuum pump. Unless otherwise noted, flash chromatography is carried out on a Teledyne Isco (Lincoln, NE), Analogix (Burlington, WI), or Biotage (Stockholm, SWE) automated chromatography system using a commercially available cartridge as the column. Columns may be purchased from Teledyne Isco, Analogix, Biotage, Varian (Palo Alto, CA), or Supelco (Bellefonte, PA) and are usually filled with silica gel as the stationary phase. Reverse phase prep-HPLC conditions, where used, can be found at the end of each experimental section. Aqueous solutions were concentrated on a Genevac (Ipswich, ENG) or by freeze-drying/lyophilization. Unless otherwise noted, all LRRK2 pIC50 data presented in tables refers to the LRRK2 G2019S Km ATP LanthaScreen™ assay (Life Technologies Corp., Carlsbad, CA) that is described in the Biological Assay section.
Biological Assay: LRRK2 Km ATP LanthaScreen™ Assay
The LRRK2 kinase activity reported herein as IC50 values was determined with LanthaScreen™ technology from Life Technologies Corporation (Carlsbad, CA) using GST-tagged truncated human mutant G2019S LRRK2 in the presence of the fluorescein-labeled peptide substrate LRRKtide, also from Life Technologies. The data presented for the Km ATP LanthaScreen™ Assay represents mean IC50 values based on several test results and may have reasonable deviations depending on the specific conditions and reagents used. Assays were performed in the presence of 134 μM ATP (Km ATP). Upon completion, the assay was stopped and phosphorylated substrate detected with a terbium (Tb)-labeled anti-pERM antibody (cat. no. PV4898). The compound dose response was prepared by diluting a 10 mM stock of compound to a maximum concentration of 9.99 μM in 100% dimethylsulfoxide followed by custom fold serial dilution in dimethylsulfoxide nine times. Twenty nanoliters of each dilution was spotted via a Labcyte Echo onto a 384-well black-sided plate (Corning 3575) followed by 15 μl of a 1.25 nM enzyme solution in 1× assay buffer (50 mM Tris pH 8.5, 10 mM MgCl2, 0.01% Brij-35, 1 mM EGTA, 2 mM dithiothreitol, 0.05 mM sodium orthovanadate). Following a 15-minute incubation at room temperature, the kinase reaction was started with the addition of 5 μl of 400 nM fluorescein-labeled LRRKtide peptide substrate and 134 μM ATP solution in 1× assay buffer. The reaction was allowed to progress at ambient temperature for 90 minutes. The reaction was then stopped by the addition of 20 μl of TR-FRET Dilution Buffer (Life Technologies, Carlsbad, CA) containing 2 nM Tb-labeled anti-phospho LRRKtide antibody and 10 mM EDTA (Life Technologies, Carlsbad, CA). After an incubation of 1 hour at room temperature, the plate was read on an EnVision multimode plate reader (Perkin Elmer, Waltham, MA) with an excitation wavelength of 337 nm (Laser) and a reading emission at both 520 and 495 nm. Compound IC50s were interpolated from nonlinear regression best fits of the log of the final compound concentration, plotted as a function of the 520/495-nm emission ratio using Activity base. Abase uses a 4 parameter (4P) logistic fit based on the Levenberg-Marquardt algorithm.

T1 sequence (Q5S007 970-2527 G2019S limits assumed): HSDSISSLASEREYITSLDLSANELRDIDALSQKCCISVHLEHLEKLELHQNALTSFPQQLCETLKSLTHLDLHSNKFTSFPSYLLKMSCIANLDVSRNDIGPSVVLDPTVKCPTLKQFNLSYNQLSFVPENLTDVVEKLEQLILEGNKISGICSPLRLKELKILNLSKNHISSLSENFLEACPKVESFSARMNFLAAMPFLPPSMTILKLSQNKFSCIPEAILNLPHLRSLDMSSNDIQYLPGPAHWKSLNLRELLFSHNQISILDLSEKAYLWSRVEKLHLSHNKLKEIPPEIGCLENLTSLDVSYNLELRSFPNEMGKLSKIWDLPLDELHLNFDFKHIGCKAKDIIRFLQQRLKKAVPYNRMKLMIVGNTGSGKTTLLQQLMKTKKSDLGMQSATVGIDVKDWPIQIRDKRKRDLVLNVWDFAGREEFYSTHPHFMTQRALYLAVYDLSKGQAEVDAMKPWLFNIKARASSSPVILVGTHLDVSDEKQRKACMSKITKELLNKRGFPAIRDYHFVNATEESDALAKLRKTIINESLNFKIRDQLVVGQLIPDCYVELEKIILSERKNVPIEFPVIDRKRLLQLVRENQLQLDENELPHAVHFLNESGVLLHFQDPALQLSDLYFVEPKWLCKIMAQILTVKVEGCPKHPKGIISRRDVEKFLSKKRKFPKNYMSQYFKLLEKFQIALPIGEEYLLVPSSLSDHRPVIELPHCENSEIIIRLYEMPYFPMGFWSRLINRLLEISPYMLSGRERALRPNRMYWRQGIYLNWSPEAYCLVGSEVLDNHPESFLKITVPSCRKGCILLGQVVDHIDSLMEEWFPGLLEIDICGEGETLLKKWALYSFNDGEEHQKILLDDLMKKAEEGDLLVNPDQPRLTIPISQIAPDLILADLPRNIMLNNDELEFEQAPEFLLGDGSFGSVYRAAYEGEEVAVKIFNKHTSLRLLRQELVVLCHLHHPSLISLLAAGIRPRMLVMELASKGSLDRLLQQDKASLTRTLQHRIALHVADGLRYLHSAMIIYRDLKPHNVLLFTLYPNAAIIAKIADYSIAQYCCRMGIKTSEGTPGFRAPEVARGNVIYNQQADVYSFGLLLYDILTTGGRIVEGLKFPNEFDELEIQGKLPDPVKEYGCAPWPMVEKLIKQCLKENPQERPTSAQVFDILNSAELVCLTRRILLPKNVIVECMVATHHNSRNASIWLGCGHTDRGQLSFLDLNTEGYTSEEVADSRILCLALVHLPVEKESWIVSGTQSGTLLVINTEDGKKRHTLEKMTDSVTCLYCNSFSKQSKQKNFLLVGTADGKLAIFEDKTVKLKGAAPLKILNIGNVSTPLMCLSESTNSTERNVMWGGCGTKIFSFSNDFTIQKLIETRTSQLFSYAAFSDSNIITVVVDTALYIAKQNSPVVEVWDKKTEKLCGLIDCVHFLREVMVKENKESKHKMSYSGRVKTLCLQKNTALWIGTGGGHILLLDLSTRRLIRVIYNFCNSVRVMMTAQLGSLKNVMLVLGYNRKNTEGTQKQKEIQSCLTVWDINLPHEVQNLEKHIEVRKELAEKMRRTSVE

SMILES | LRRK2 pIC50
COCCC(=O)Nc1cc2cc(N3CCN(C4(C)COCC4O)CC3)c(Cl)cc2cn1 (stereo not shown) [Ex-9.1] | 8.12
CC(C)C1CC(C(=O)Nc2cc3cc(N4CCN(C5(C)COCC5O)CC4)c(Cl)cc3cn2)C1 (stereo not shown) [Ex-9.3] | 8.58
CC(C)OC1CCC(C(=O)Nc2cc3cc(N4CCN(C5(C)COCC5O)CC4)c(Cl)cc3cn2)OC1 (stereo not shown) [Ex-9.5] | 8.28
CCC1(N2CCN(c3cc4cc(NC(=O)C5CC56CCOCC6)ncc4cc3C)CC2)COCC1O (stereo not shown) [Ex-6.12] | 9.67

same assay, conditions: 134 μM ATP (Km ATP), LRRKtide substrate, mean of several tests, read-out: LRRK2 pIC50 (converted)

SMILES | IC50
Cc1cc2cnc(NC(=O)C3CC34CCOC4)cc2cc1N1CCN(C2(C)COCC2O)CC1 (single isomer, unassigned) [Ex-6.8, (1R, 3S or 1S,3R, or 1R,3S, or 1S,3S)-N-(6-(4-((3R, 4R or 3S,4S)-4-hydroxy-3-methyltetrahydrofuran-3-yl)piperazin-1-yl)-7-methylisoquinolin-3-yl)-5-oxaspiro[2.4]heptane-1-carboxamide] | 631 nM
Cn1ccc(C2CC2C(=O)Nc2cc3cc(N4CCN(C5(C)COCC5F)CC4)c(Cl)cc3cn2)n1 (single isomer, unassigned) [Ex-10.17, (1R,2R or 1S,2S)-N-[7-chloro-6-[4-((3R,4R or 3S,4S)-4-fluoro-3-methyl-tetrahydrofuran-3-yl)piperazin-1-yl]-3-isoquinolyl]-2-(1-methylpyrazol-3-yl)cyclopropanecarboxamide] | 2.75 nM
CC1(N2CCN(c3cc4cc(NC(=O)C5CCC5c5ccccn5)ncc4cc3Cl)CC2)COCC1O (single isomer, unassigned) [Ex-11.5, (1R,2R or 1S,2S)-N-(7-chloro-6-(4-((3R,4R or 3S,4S)-4-hydroxy-3-methyltetrahydrofuran-3-yl)piperazin-1-yl)isoquinolin-3-yl)-2-(pyridin-2-yl)cyclobutane-1-carboxamide] | 0.0813 nM
CC1(N2CCN(c3cc4cc(NC(=O)C5CC5c5cccs5)ncc4cc3Cl)CC2)COCC1O (single isomer, unassigned) [Ex-10.14, (1R,2R or 1R,2S)-N-[7-chloro-6-[4-((3R,4R or 3S,4S)-4-hydroxy-3-methyl-tetrahydrofuran-3-yl)piperazin-1-yl]-3-isoquinolyl]-2-(2-thienyl)cyclopropanecarboxamide] | 4.27 nM
CCC1C(C(=O)Nc2cc3cc(N4CCN(C5(C)COCC5F)CC4)c(Cl)cc3cn2)C1c1ccn(C)n1 (single isomer, unassigned) [Ex-10.49, (1R,2R,3R, 1R,2S,3R, or 1S,2R,3S, or 1S,2S,3S)-N-[7-chloro-6-[4-((3R,4R or 3S,4S)-4-fluoro-3-methyl-tetrahydrofuran-3-yl)piperazin-1-yl]-3-isoquinolyl]-2-ethyl-3-(1-methylpyrazol-3-yl)cyclopropanecarboxamide] | 0.0813 nM
CC1(N2CCN(c3cc4cc(NC(=O)C5CCCOC5)ncc4cc3Cl)CC2)COCC1O (single isomer, unassigned) [Ex-10.3, (3R or 3S)-N-(7-chloro-6-(4-((3R, 4R or 3S, 4S)-4-hydroxy-3-methyltetrahydrofuran-3-yl)piperazin-1-yl)isoquinolin-3-yl)tetrahydro-2H-pyran-3-carboxamide] | 1.58 nM
CC1(N2CCN(c3cc4cc(NC(=O)C5CC56CCCOC6)ncc4cc3Cl)CC2)COCC1O (single isomer, unassigned) [Ex-1.13, (1R,3S, or 1R,3R, or 1S,3S, or 1S,3R)-N-(7-chloro-6-(4-((3R,4R or 3S,4S)-4-hydroxy-3-methyltetrahydrofuran-3-yl)piperazin-1-yl)isoquinolin-3-yl)-5-oxaspiro[2.5]octane-1-carboxamide] | 275 nM
CC1(N2CCN(c3cc4cc(NC(=O)C5CC6(CC6)C5)ncc4cc3Cl)CC2)COCC1O (single isomer, unassigned) [Ex-2.17, N-(7-chloro-6-(4-((3R,4R or 3S,4S)-4-hydroxy-3-methyltetrahydrofuran-3-yl)piperazin-1-yl)isoquinolin-3-yl)spiro[2.3]hexane-5-carboxamide] | 0.955 nM
C[C@H]1CN(c2cc3cc(NC(=O)C4CC45CCOCC5)ncc3cc2Cl)CCN1C1COCC1O (single isomer, unassigned) [Ex-2.4, (R or S)-N-{7-chloro-6-[(3S or 3R)-4-(3R,4R or 3S,4S)-4-hydroxyoxolan-3-yl)-3-methylpiperazin-1-yl]isoquinolin-3-yl}-6-oxaspiro[2.5]octane-1-carboxamide] | 0.38 nM
C[C@H]1CN(c2cc3cc(NC(=O)C4CC45CCOCC5)ncc3cc2Cl)CCN1C1COCC1O (single isomer, unassigned) [Ex-2.3, (R or S)-N-{7-chloro-6-[(3S or 3R)-4-(3R,4R or 3S,4S)-4-hydroxyoxolan-3-yl)-3-methylpiperazin-1-yl]isoquinolin-3-yl}-6-oxaspiro[2.5]octane-1-carboxamide] | 17.4 nM
Cn1ncc(C2CC2C(=O)Nc2cc3cc(N4CCN(C5(C)CCOC5)CC4)c(Cl)cc3cn2)c1C(F)(F)F (single isomer, unassigned) [Ex-10.25, (1R,2R or 1S,2S)-N-[7-chloro-6-[4-((R or S)-3-methyltetrahydrofuran-3-yl)piperazin-4-ium-1-yl]-3-isoquinolyl]-2-[1-methyl-5-(trifluoromethyl)pyrazol-4-yl]cyclopropanecarboxamide] | 3.72 nM
Cc1cc2cnc(NC(=O)C3CC3c3ccccn3)cc2cc1N1CCN(C2(C)COCC2F)CC1 (single isomer, unassigned) [Ex-6.14] | 0.148 nM
CC1(N2CCN(c3cc4cc(NC(=O)C5CCC5C#N)ncc4cc3Cl)CC2)COCC1F (single isomer, unassigned) [Ex-10.68, (1R,2R or 1S,2S)-N-[7-chloro-6-[4-((3R,4R or 3S,4S)-4-fluoro-3-methyl-tetrahydrofuran-3-yl)piperazin-1-yl]-3-isoquinolyl]-2-cyano-cyclobutanecarboxamide] | 0.0813 nM
CC1C(C(=O)Nc2cc3cc(N4CCN(C5(C)CCOC5)CC4)c(Cl)cc3cn2)C1c1cnn(C)c1 (single isomer, unassigned) [Ex-9.8] | 4.9 nM
CC1(N2CCN(c3cc4cc(NC(=O)C5CC56CCCOC6)ncc4cc3Cl)CC2)COCC1O (single isomer, unassigned) [Ex-1.11, (1R,3S, or 1R,3R, or 1S,3S, or 1S,3R)-N-(7-chloro-6-(4-((3R,4R or 3S,4S)-4-hydroxy-3-methyltetrahydrofuran-3-yl)piperazin-1-yl)isoquinolin-3-yl)-5-oxaspiro[2.5]octane-1-carboxamide] | 1.7 nM
CC1(N2CCN(c3cc4cc(NC(=O)C5CC56CC6)ncc4cc3Cl)CC2)COCC1F (single isomer, unassigned) [Ex-10.79, (R or S)-N-[7-chloro-6-[4-((3R,4R or 3S,4S)-4-fluoro-3-methyl-tetrahydrofuran-3-yl)piperazin-1-yl]-3-isoquinolyl]spiro[2.2]pentane-2-carboxamide] | 0.0813 nM
Cc1cc2cnc(NC(=O)C3C(C)C3c3cnn(C)c3)cc2cc1N1CCN(C2(C)CCOC2)CC1 (single isomer, unassigned) [Ex-9.14] | 0.0813 nM
Cn1ncc(C2CC2C(=O)Nc2cc3cc(N4CCN(C5(C)CCOC5)CC4)c(Cl)cc3cn2)c1C(F)(F)F (single isomer, unassigned) [Ex-10.28, (1R,2R or 1S,2S)-N-[7-chloro-6-[4-((R or S)-3-methyltetrahydrofuran-3-yl)piperazin-4-ium-1-yl]-3-isoquinolyl]-2-[1-methyl-5-(trifluoromethyl)pyrazol-4-yl]cyclopropanecarboxamide] | 56.2 nM

From patent US12516039B2, “N-linked isoquinoline amides as LRRK2 inhibitors, pharmaceutical compositions, and uses thereof” (Merck Sharp & Dohme LLC, priority 2020, dated 2026)
